According to article PMC3090393, “New Noncovalent Inhibitors of Penicillin-Binding Proteins from Penicillin-Resistant Bacteria” (PLoS ONE, 2011):
In brackets after ≈: the same amount, converted by molar mass.

Experiments:
Assay in all cases: In-vitro antibacterial activity (MIC, broth microdilution)
Format in all cases: cell-based
[1] = test system: Pseudomonas aeruginosa ATCC 27853; conditions: ATCC27853
How it was run: (§1)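 Broth microdilution in Müller-Hinton broth per EUCAST/CLSI, compounds dissolved in MHB just before use. Inoculum from 18 h colonies set to 0.5 McFarland (~1×10^8 CFU mL^−1) in saline, then diluted 200-fold in MHB.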

[2] = test system: Micrococcus luteus ATCC 9341; conditions: ATCC9341
How it was run: as §1

[3] = test system: Bacillus subtilis ATCC 6633; conditions: ATCC6633
How it was run: as §1

[4] = test system: Proteus mirabilis ATCC 29936; conditions: ATCC29936
How it was run: as §1

[5] = test system: Staphylococcus aureus ATCC 43300 (MRSA)
How it was run: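 Broth microdilution in Müeller-Hinton Broth per EUCAST/CLSI procedures, with compounds dissolved in MHB just before use. Inocula came from colonies of 18 h plates, adjusted to 0.5 McFarland (approximately 1×10^8 CFU mL^−1) in 0.085% NaCl saline, then diluted 200-fold in MHB.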

[6] = test system: Staphylococcus epidermidis ATCC 12228; conditions: ATCC12228
How it was run: as §1

[7] = test system: Enterococcus hirae ATCC 8790; conditions: ATCC8790
How it was run: as §1

[8] = test system: Listeria monocytogenes ATCC 14780; conditions: ATCC14780
How it was run: as §1

[9] = test system: Klebsiella pneumoniae ATCC 13883; conditions: ATCC13883
How it was run: as §1

[10] = test system: Streptococcus pneumoniae D39
How it was run: as §1

[11] = test system: Streptococcus pneumoniae ATCC 49619; conditions: ATCC49619
How it was run: as §1

[12] = test system: Citrobacter freundii ATCC 8090; conditions: ATCC8090
How it was run: as §1

[13] = test system: Listeria innocua ATCC 33090; conditions: ATCC33090
How it was run: as §1

[14] = test system: Escherichia coli ATCC 8739; conditions: ATCC8739
How it was run: as §1

CCCCOc1ccc2cc(S(=O)(=O)Nc3ccccc3C(=O)O)ccc2c1 [compound 1, 2-(6-butoxynaphthalene-2-sulfonamido)benzoic acid]
MIC [1]: > 1020 µg/mL
MIC [2]: 2 µg/mL (≈ 5.01 µM)
MIC [3]: 2 µg/mL (≈ 5.01 µM)
MIC [4]: > 1020 µg/mL
MIC [5]: 32 µg/mL (≈ 80.1 µM)
MIC [6]: 32 µg/mL (≈ 80.1 µM)
MIC [7]: 16 µg/mL (≈ 40.1 µM)
MIC [8]: 16 µg/mL (≈ 40.1 µM)
MIC [9]: > 1020 µg/mL
MIC [10]: 1 µg/mL (≈ 2.5 µM)
MIC [11]: 1 µg/mL (≈ 2.5 µM)
MIC [12]: > 1020 µg/mL
MIC [13]: 16 µg/mL (≈ 40.1 µM)
MIC [14]: > 1020 µg/mL
